Data taken from patent US20230233569A1 (Revolution Medicines, Inc., priority 2020, published 2023).
Where two headings read alike, the source gives them in different places.

How the values were obtained:
[1] = test system: Capan-1 (K-Ras G12V); assay: CellTiter-Glo cell viability assay, 5-day treatment; assay type: cell-based; conditions: Homo sapiens, CAPAN-1, 120 h, 5-day treatment; read-out: Capan-1 Cell Viability assay data (K-Ras G12V, IC50)
In short: (§1)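 Seeded cells received test compound by direct dispensing. On day 5 the plates sat at room temperature approximately 30 minutes, then luminescence was measured. Data were normalized to DMSO and curve-fitted with four parameters.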

[2] = test system: NCI-H358 (K-Ras G12C); assay: as above; assay type: cell-based; conditions: Homo sapiens, NCI-H358, 120 h, 5-day treatment; read-out: H358 Cell Viability assay data (K-Ras G12C, IC50)
In short: as §1

[3] = biological target: KRAS G13D (Homo sapiens, UniProt P01116+P62937, G13D); assay: Disruption of BRAF RBD interaction with Ras (FRET / MOA assay, with Cyclophilin A); assay type: biochemical
In short: (§2)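 Here, compound titrations (ten points, factor 3, from 30 μM final) act on nucleotide-bound K-Ras and Cyclophilin A, and ternary complex formation disrupts the RAF RBD interaction.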

[4] = biological target: KRAS G12V (Homo sapiens, UniProt P01116+P62937, G12V); assay: as above; assay type: biochemical
In short: as §2

[5] = biological target: KRAS G12D (Homo sapiens, UniProt P01116+P62937, G12D); assay: as above; assay type: biochemical
In short: as §2

[6] = biological target: KRAS G12S (Homo sapiens, UniProt P01116+P62937, G12S); assay: as above; assay type: biochemical
In short: as §2

[7] = biological target: KRAS WT (Homo sapiens, UniProt P01116+P62937); assay: as above; assay type: biochemical
In short: as §2

[8] = biological target: KRAS G12C (Homo sapiens, UniProt P01116+P62937, G12C); assay: as above; assay type: biochemical
In short: as §2

[9] = biological target: NRAS G12C (Homo sapiens, UniProt P01111+P62937, G12C); assay: as above; assay type: biochemical
[10] = biological target: KRAS G13C (Homo sapiens, UniProt P01116+P62937, G13C); assay: as above; assay type: biochemical
In short: as §2

[11] = biological target: NRAS Q61R (Homo sapiens, UniProt P01111+P62937, Q61R); assay: as above; assay type: biochemical; conditions: NRAS Q61R; read-out: NRAS Q61R FRET data IC50
In short: (§3)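 IC50 reflects compound-driven Ras:Cyclophilin A ternary complex displacing BRAF RBD, read as lowered TR-FRET ratio relative to DMSO after Eu anti-His (10 nM) and APC anti-GST (50 nM) detection for 1.5 h. Prior incubation 3 h, 25° C, with 12.5 nM GMPPNP-loaded Ras, 50 nM BRAF RBD, 25 μM Cyclophilin A; top compound 30 μM.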

[12] = biological target: NRAS WT (Homo sapiens, UniProt P01111+P62937); assay: as above; assay type: biochemical; conditions: NRAS WT; read-out: NRAS WT FRET data IC50
In short: as §3

[13] = biological target: NRAS Q61K (Homo sapiens, UniProt P01111+P62937, Q61K); assay: as above; assay type: biochemical; conditions: NRAS Q61K; read-out: NRAS Q61K FRET data IC50
In short: as §3

[14] = biological target: KRAS Q61H (Homo sapiens, UniProt P01116+P62937, Q61H); assay: as above; assay type: biochemical; conditions: KRAS Q61H; read-out: KRAS Q61H FRET data IC50
In short: as §3

[15] = KRAS G13D, read-out: KRAS G13D FRET data IC50
[16] = KRAS G12V, read-out: KRAS G12V FRET data IC50
[17] = read-out: KRAS G12D FRET data, IC50
[18] = read-out: KRAS G12S FRET data, IC50
[19] = KRAS WT, read-out: KRAS WT FRET data IC50
[20] = read-out: KRAS G12C FRET data, IC50
[21] = NRAS G12C, read-out: NRAS G12C FRET data IC50
[22] = read-out: KRAS G13C FRET data, IC50

KRAS WT, sequence (P01116 1-169 isoform P01116-2 limits assumed): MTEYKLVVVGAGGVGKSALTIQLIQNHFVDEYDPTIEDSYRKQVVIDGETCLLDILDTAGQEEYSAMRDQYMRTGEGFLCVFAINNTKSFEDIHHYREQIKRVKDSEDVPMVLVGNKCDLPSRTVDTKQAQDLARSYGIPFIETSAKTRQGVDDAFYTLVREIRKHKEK
KRAS WT, sequence (P62937 whole entry): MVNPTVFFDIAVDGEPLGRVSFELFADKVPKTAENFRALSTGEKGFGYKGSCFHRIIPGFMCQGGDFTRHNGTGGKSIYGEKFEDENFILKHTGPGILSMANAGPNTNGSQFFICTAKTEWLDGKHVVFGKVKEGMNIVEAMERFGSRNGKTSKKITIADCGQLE
NRAS WT, sequence (P01111 whole entry): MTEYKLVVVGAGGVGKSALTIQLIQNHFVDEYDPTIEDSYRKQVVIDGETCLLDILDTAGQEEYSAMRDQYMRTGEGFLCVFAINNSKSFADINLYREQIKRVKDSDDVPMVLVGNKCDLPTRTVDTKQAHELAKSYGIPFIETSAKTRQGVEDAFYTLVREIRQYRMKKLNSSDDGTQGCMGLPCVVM
NRAS WT, sequence (P62937 whole entry): as the sequence (P62937 whole entry) above
NRAS Q61R, sequence (P01111 whole entry Q61R): as the sequence (P01111 whole entry) above, with Q61R counted along it
NRAS Q61R, sequence (P62937 whole entry): as the sequence (P62937 whole entry) above
KRAS G12D, sequence (P01116 1-169 isoform P01116-2 G12D limits assumed): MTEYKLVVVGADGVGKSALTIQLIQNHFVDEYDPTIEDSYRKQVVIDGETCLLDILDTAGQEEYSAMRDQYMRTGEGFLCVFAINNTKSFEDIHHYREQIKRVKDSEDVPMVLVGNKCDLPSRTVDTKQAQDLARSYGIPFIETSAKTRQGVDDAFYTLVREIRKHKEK
KRAS G12D, sequence (P62937 whole entry): as the sequence (P62937 whole entry) above
KRAS G13C, sequence (P01116 1-169 isoform P01116-2 G13C): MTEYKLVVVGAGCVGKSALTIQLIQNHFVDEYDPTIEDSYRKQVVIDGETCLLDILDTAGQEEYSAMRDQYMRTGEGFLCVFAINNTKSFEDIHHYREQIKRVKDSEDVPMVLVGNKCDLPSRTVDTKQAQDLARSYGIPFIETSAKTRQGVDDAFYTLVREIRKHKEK
KRAS G13C, sequence (P62937 whole entry): as the sequence (P62937 whole entry) above
NRAS G12C, sequence (P01111 whole entry G12C): as the sequence (P01111 whole entry) above, with G12C counted along it
NRAS G12C, sequence (P62937 whole entry): as the sequence (P62937 whole entry) above
KRAS G12C, sequence (P01116 1-169 isoform P01116-2 G12C): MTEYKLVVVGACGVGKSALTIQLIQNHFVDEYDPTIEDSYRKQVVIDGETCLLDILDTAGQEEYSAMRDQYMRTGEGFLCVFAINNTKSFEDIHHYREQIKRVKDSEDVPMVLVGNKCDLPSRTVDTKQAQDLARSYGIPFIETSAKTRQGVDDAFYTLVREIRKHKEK
KRAS G12C, sequence (P62937 whole entry): as the sequence (P62937 whole entry) above
KRAS Q61H, sequence (P01116 1-169 isoform P01116-2 Q61H limits assumed): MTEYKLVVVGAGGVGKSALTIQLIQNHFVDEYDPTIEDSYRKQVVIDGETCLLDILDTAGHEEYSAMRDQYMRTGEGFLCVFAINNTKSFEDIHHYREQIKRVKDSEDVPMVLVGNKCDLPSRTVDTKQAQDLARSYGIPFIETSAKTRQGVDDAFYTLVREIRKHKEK
KRAS Q61H, sequence (P62937 whole entry): as the sequence (P62937 whole entry) above
KRAS G12S, sequence (P01116 1-169 isoform P01116-2 G12S limits assumed): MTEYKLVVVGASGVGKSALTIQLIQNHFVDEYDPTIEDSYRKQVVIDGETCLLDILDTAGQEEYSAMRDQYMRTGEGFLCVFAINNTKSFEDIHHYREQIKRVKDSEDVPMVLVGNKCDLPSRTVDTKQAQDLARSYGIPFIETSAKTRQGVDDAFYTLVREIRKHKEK
KRAS G12S, sequence (P62937 whole entry): as the sequence (P62937 whole entry) above
KRAS G13D, sequence (P01116 1-169 isoform P01116-2 G13D limits assumed): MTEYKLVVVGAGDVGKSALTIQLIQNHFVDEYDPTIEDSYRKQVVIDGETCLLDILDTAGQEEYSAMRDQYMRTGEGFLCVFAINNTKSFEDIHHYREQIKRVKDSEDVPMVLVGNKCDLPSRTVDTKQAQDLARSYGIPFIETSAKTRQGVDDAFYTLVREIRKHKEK
KRAS G13D, sequence (P62937 whole entry): as the sequence (P62937 whole entry) above
KRAS G12V, sequence (P01116 1-169 isoform P01116-2 G12V limits assumed): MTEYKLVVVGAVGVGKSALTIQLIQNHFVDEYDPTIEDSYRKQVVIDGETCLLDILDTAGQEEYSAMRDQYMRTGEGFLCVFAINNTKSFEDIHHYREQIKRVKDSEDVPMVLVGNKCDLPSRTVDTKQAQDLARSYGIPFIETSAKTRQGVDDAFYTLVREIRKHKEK
KRAS G12V, sequence (P62937 whole entry): as the sequence (P62937 whole entry) above
NRAS Q61K, sequence (P01111 whole entry Q61K): as the sequence (P01111 whole entry) above, with Q61K counted along it
NRAS Q61K, sequence (P62937 whole entry): as the sequence (P62937 whole entry) above

IC50 [2] [nM]	IC50 [11] [nM]	IC50 [12] [nM]	IC50 [13] [nM]	IC50 [14] [nM]	IC50 [3, 15] [nM]	IC50 [4, 16] [nM]	IC50 [5, 17] [nM]	IC50 [6, 18] [nM]	IC50 [7, 19] [nM]	IC50 [8, 20] [nM]	IC50 [9, 21] [nM]	IC50 [10, 22] [nM]	Structure (SMILES)	IC50 [1] [nM]	further results
100 to 1000	1000 to 10000	10 to 100	100 to 1000	10 to 100	10 to 100	100 to 1000	10 to 100	10 to 100	10 to 100	100 to 1000	100 to 1000	10 to 100	CCn1c(-c2cccnc2[C@H](C)OC)c2c3cc(ccc31)-c1cc(O)cc(c1)C[C@H](NC(=O)[C@H](C(C)C)N(C)C(=O)C1CN(C)C1)C(=O)N1CCC[C@H](N1)C(=O)OCC(C)(C)C2 (atropisomer, axis not shown) [Example A124]	1000 to 10000	
100 to 1000	100 to 1000	100 to 1000	100 to 1000	100 to 1000	1000 to 10000	1000 to 10000	1000 to 10000	100 to 1000	100 to 1000	100 to 1000	100 to 1000	1000 to 10000	CCn1c(-c2cccnc2[C@H](C)OC)c2c3cc(ccc31)-c1csc(n1)C[C@H](NC(=O)[C@H](C(C)C)N(C)C(=O)N(C)C1(COC)COC1)C(=O)N1CCC[C@H](N1)C(=O)OCC(C)(C)C2 [Example A455]	100 to 1000	

The remaining lines, values behind:

Structure (SMILES)	IC50 [2] [nM]	IC50 [11] [nM]	IC50 [12] [nM]	IC50 [13] [nM]	IC50 [14] [nM]	IC50 [3, 15] [nM]	IC50 [4, 16] [nM]	IC50 [5, 17] [nM]	IC50 [6, 18] [nM]	IC50 [7, 19] [nM]	IC50 [8, 20] [nM]	IC50 [9, 21] [nM]	IC50 [10, 22] [nM]	IC50 [1] [nM]	further results
CCn1c(-c2cccnc2[C@H](C)OC)c2c3cc(ccc31)-c1csc(n1)C[C@H](NC(=O)N1CCC[C@@H]1COC)C(=O)N1CCC[C@H](N1)C(=O)OCC(C)(C)C2 (atropisomer, axis not shown) [Example A266]	100 to 1000	100 to 1000	100 to 1000	10 to 100	10 to 100									100 to 1000	IC50 ([3]; KRAS G13D FRET data IC50, KRAS G13D): 100 to 1000 nM; IC50 ([4]; KRAS G12V FRET data IC50, KRAS G12V): 10 to 100 nM; IC50 ([5]; KRAS G12D FRET data, IC50): 100 to 1000 nM; IC50 ([6]; KRAS G12S FRET data, IC50): 100 to 1000 nM; IC50 ([7]; KRAS WT FRET data IC50, KRAS WT): 100 to 1000 nM; IC50 ([8]; KRAS G12C FRET data, IC50): 10 to 100 nM; IC50 ([9]; NRAS G12C FRET data IC50, NRAS G12C): 10 to 100 nM; IC50 ([10]; KRAS G13C FRET data, IC50): 10 to 100 nM
CCn1c(-c2cccnc2[C@H](C)OC)c2c3cc(ccc31)-c1csc(n1)C[C@H](NC(=O)[C@H](C(C)C)N(C)C(=O)N1C[C@H](C)N(C)C[C@@H]1C)C(=O)N1CCC[C@H](N1)C(=O)OCC(C)(C)C2 [Example A283]	100 to 1000	100 to 1000	100 to 1000	100 to 1000	100 to 1000	1000 to 10000	1000 to 10000	1000 to 10000	1000 to 10000	100 to 1000	100 to 1000	100 to 1000	1000 to 10000	100 to 1000	
CCn1c(-c2cccnc2[C@H](C)OC)c2c3cc(ccc31)-c1csc(n1)C[C@H](NC(=O)[C@H](C(C)C)N(C)C(=O)O[C@H]1CCOC1)C(=O)N1CCC[C@H](N1)C(=O)OCC(C)(C)C2 [Example A210]	100 to 1000	100 to 1000	100 to 1000	100 to 1000	100 to 1000	1000 to 10000	1000 to 10000	1000 to 10000	1000 to 10000	100 to 1000	100 to 1000	100 to 1000	1000 to 10000	10 to 100	
